Consider 1 compound from patent US20220354911A1, “TREATMENT OF TUMORS BY A COMBINATION OF AN ONCOLYTIC ADENOVIRUS, A CDK4/6 INHIBITOR AND A FURTHER THERAPEUTICALLY ACTIVE AGENT” (KLINIKUM RECHTS DER ISAR DER TECHNISCHEN UNIVERSITÄT MÜNCHEN, priority 2019, published 2022).

The test system of one assay is XVir-N-31. Description: XVir-N-31 fiber DNA qPCR in glioblastoma cells, JQ1 and Ribociclib. It is filed as cell-based, Mastadenovirus, Type C, Serotype 5. The note with it: U87 24 h.p.i., LN229 and T98G 48 h.p.i. The procedure:
1×10^5 cells were seeded in 6 well plates in DMEM medium. The following day the cells were treated with the 500 nM LEE011 and 50 nM JQ1. At the next morning the cells were infected with 20 MOI for U87 and LN229, and 50 MOI for T98G respectively. One hour after infection DMEM Medium containing the inhibitors was added onto the cells. After each time point (4, 24, 48 hours) the cells were washed once with PBS and 200 μl of SDS DNA Lysis Buffer was added. The cells were incubated with Proteinase K for 1 hour before undergoing a phenol-chloroform-isoamylalcohol purification. The DNA was diluted in 1×TE buffer and the concentration of the DNA was determined using a Nanodrop. For each sample a solution of 10 ng/μl was prepared and a RT-qPCR using 50 ng of DNA and a GoTaq Master mix. Specific Fiber forward and reverse primers were used and for the calculation of the Δ ct value specific Actin primers were used as well. For each sample 3 Fiber and 2 Actin values were measured. The calculation was done in excel and each 24 and 48 hours was calculated based on its 4 hours value (initial viral entry, before replication).

Assay [1] concerns E1A, E1B55k, DBP, E40rf6 and Hexon. Description: Western blot of viral protein expression kinetics in UMUC-3 cells with JQ-1. It is filed as cell-based, Mastadenovirus, Type C, Serotype 5. As to conditions: UMUC-3, 10 MOI. On the procedure: (§1) 1×10^6 UMUC-3 cells were seeded in 10 cm plates in DMEM medium and 24 hours post seeding infected with 10 MOI XVir-N-31. 1 hour post infection, culturing media was either refilled by DMEM or DMEM spiked with 500 nM JQ-1. 12, 24, 36 and 48 h.p.i, lysates of total proteins were taken using an SDS-buffer. BCA Assay was applied to adjust equivalent protein concentrations. Then, protein samples were supplemented with Lämmli buffer and separated via SDS-PA gelelectrophoresis on 10% PA-Gels. Samples were blotted onto PVDF membranes using a BioRAD Wet Tank System. These membranes were blocked with TBS-Tween buffer containing 5% Skim milk powder for 1 hour at room temperature. Incubation with primary antibodies was conducted over night at 4° C. and with HRP-conjugated secondary antibodies for 1 hour at room temperature. Chemiluminescence was detected using ECL prime (Pierce) with the ChemiDoc Imaging System (BioRad). Figures were designed in Adobe® Illustrator and evaluation was performed with ImageLab.
For orientation: Immunoblotting shows a protein as a band on a membrane.

The subject of another assay is UMUC-3 and RT112. Description: FACS cell cycle analysis, JQ-1 and Palbociclib. As to conditions: 100 or 300 nM JQ-1, 500 nM Palbociclib. The format is cell-based, human. On the procedure:
For such purpose, 5×10^4 cells UMUC-3 and RT112, respectively, were seeded in 6-well plates and 24 hours later treated with appropriate inhibitors. 1 day later, at approximately 80% confluency, cells were washed with PBS, trypsinized, washed again and fixated with icecold 80% ethanol. For cell cycle analysis, samples were incubated with the DNA-intercalating dye 7-aminoactinomycine D (7-AAD) and measured via FACS analysis. Evaluation of measured data was performed via the software FlowJo.

Assay [2] relates to RB, phospho-RB, E2F-1, Hexim1. The experiment in a line: Western blot of cellular target proteins after JQ-1 and Palbociclib. The format is cell-based, human. The procedure: as §1, with “1-2×10^6” for “1×10^6”, “UMUC-3 or RT-112” for “UMUC-3”, “treated” for “infected”, “respective small molecular inhibitors. 24 hours” for “10 MOI XVir-N-31. 1 hour”, “treatment,” for “infection, culturing media was either refilled by DMEM or DMEM spiked with 500 nM JQ-1. 12, 24, 36 and 48 h.p.i,”

As to `Cc1sc2c(c1C)C(c1ccc(Cl)cc1)=N[C@@H](CC(=O)OC(C)(C)C)c1nnc(C)n1-2` [JQ-1, thieno-triazolo-1-4-diazepine], the “XVir-N-31 replication (relative fiber DNA)” value in the assay with XVir-N-31 is reported as “high increase in replication”. Moreover, the Hexon expression entry in assay [1] (500 nM JQ-1) is reported as “expressed in high levels in early time-points”. Moreover, in assay [1] (500 nM JQ-1 concurrent, 12, 24, 36 and 48 h.p.i), the “absolute viral protein expression and kinetic of XVir-N-31 viral proteins (E1A, E1B55k, DBP and E40rf6)” value was “highly accelerated”. The cell cycle entry with UMUC-3 and RT112 is listed as “no significant influence on the cell cycle”. For the same compound, the “RB, phospho-RB or E2F-1 protein level” value in assay [2] (UMUC-3 and RT-112, 0.2 μM and 0.5 μM, 24 hours post treatment, monotherapy or with Palbociclib) is “did not show any effects”. Also, in assay [2] (UMUC-3 and RT-112, 24 hours post treatment), the Hexim1 result is reported as “downregulated”.
